According to patent US20250128203A1, “MODIFIED REDOX-ACTIVE SORBENTS FOR ELECTROCHEMICAL CARBON DIOXIDE SEPARATION” (The Johns Hopkins University, priority 2023, published 2025):
Several values for one entry are separate records, joined by “and”; a condition that tells them apart may be missing. Identical values can stand only once. Like-named read-outs stand apart in the source and are kept apart here.

How the values were obtained:
[1] = Cyclic voltammetry of isoindigos in DMF (half-wave redox potentials under N2 or CO2); format: physicochemical; details: for E1/2 in N2 (first): first half-wave potential vs. Fc^+/Fc; for E1/2 in N2 (first) / E1/2 in N2 (second) / E1/2 in CO2 (first or single) / E1/2 in CO2 (second): 2.5 mM in DMF; for E1/2 in N2 (first) / E1/2 in N2 (second): 0.1 M NBu4PF6, N2, 298 K; for E1/2 in N2 (second) / E1/2 in CO2 (second): second half-wave potential vs. Fc^+/Fc; for E1/2 in CO2 (first or single) / E1/2 in CO2 (second): 0.1 M NBu4PF6, CO2, 298 K; for E1/2 (IId/IId·−) in N2: Table 1, first electron transfer, N2, DMF
Protocol: (§1) Electrochemical measurements were conducted using a BioLogic VSP potentiostat (BioLogic Science Instruments). For the cyclic voltammetry measurements, glassy carbon (Ø=3 mm) was used as the working electrode, platinum wire was used as the counter electrode, silver wire was used as the pseudo-reference electrode and ferrocene was used as the internal reference. In a standard cyclic voltammetry measurement, the molecule of interest (2.5 mM) was dissolved in anhydrous DMF with 100 mM NBu4PF6 as the supporting salt. Typical cyclic voltammograms were collected at a scan rate of […]. To study the effects of ionic species on the redox behaviour of the sorbent molecules, 100 mM LiClO4, NaClO4, KClO4, NBu4ClO4, sodium triflate (NaOTf), or sodium bis(trifluoromethanesulfonyl)imide (NaTFSI) was used as the supporting electrolyte salt.

[2] = CO2 binding constant (KCO2) calculated from the shift of the second reduction peak in CV; details: for K[CO2] / logK[CO2]: DMF; for ΔEpeak(2): difference between the second reduction peak potentials (IId·−/IId2−) in CO2 and N2
Protocol: as §1
The CO2 binding constant (KCO2) was calculated by Eq 1: […]

[3] = UV-vis absorption, optical band gap; format: physicochemical; details: UV-vis absorption (Kubelka-Munk spectra)
Protocol: UV-vis absorption spectra were recorded on a Thermo Scientific Genesys 10S UV-vis spectrophotometer.

[4] = DMF, cited from earlier work; for E1/2 (1) in CO2: first half-wave potential; for E1/2 (1) in CO2 / E1/2 (2) in CO2 / E1/2 (2) in N2: vs. Fc^+/Fc; for E1/2 (1) in CO2 / E1/2 (2) in CO2: under CO2; for E1/2 (2) in CO2 / E1/2 (2) in N2: second half-wave potential; for E1/2 (2) in N2: under N2
[5] = Chronoamperometry: reaction rate constant between isoindigo radical anion and CO2; details: isoindigo 5 mM in DMF, 0.1 M NBu4PF6
From the text: In electrochemistry, the Cottrell equation describes the current response (i) when the potential is a step function in time (t):
where i is current, n is the number of electrons transferred per molecule, A is the area of the electrode, C*0 is the bulk concentration of the redox-active isoindigo molecule, D is the diffusion coefficient, and t is time. The expected current for a diffusion limited electrochemical process following an ECE (electron transfer, chemical reaction, electron transfer) mechanism at a plane electrode under diffusion-controlled conditions is:
where n1 and n2 are the number of electrons transferred in the first and second step, respectively, and kf is the forward reaction rate constant of the chemical reaction. Here, to calculate kf after the first electron transfer, n2 and n1 are set to 1. Eq 3 then becomes:
The integrated Cottrell equation relates total charge Q with time for chronoamperometry: […]
Then, the constant k can be calculated, here k is assumed constant:
To calculate kf, the constant k is calculated using Eq 5 using potentiostatic measurements. Plugging in Eq 6, and rearranging Eq 4 gives:
The data for determining kf is shown in FIGS. 22 to 25 using 5 mM sorbent molecules in 0.1 M NBu4PF6 DMF electrolyte. The value k was determined using data under N2; kf was obtained under 1 bar 20% CO2 (0.0396 M CO2 in solution).

| SMILES | E1/2 in N2 (first) [1] | E1/2 in N2 (second) [1] [V] | E1/2 in CO2 (first or single) ([1]; vs. Fc^+/Fc) | K[CO2] ([2]; 298 K) [M⁻¹] | logK[CO2] ([2]; 298 K) | ΔEpeak(2) [2] [V] | Optical band gap [3] [eV] | logKCO2 [4] | E1/2 (1) in CO2 [4] [V] | E1/2 (2) in CO2 [4] [V] | E1/2 (2) in N2 [4] [V] | also measured |
| --- | --- | --- | --- | --- | --- | --- | --- | --- | --- | --- | --- | --- |
| COc1ccc2c(c1)/C(=C1\C(=O)Nc3ccc([N+](=O)[O-])cc31)C(=O)N2 [5M5NIId, 5-Methoxyl-5′-nitroisoindigo] | −1.08 V and −1.08, V | −1.55 | −1.08 V | 4.45e+08 | 8.65 | 0.470 | 1.71 |  |  |  |  |  |
| CC1=C(C)C(=O)C(C)=C(C)C1=O [DBQ] |  |  |  |  |  |  |  | 17.61 | −1.39 | −1.39 | −2.39 |  |
| COC(=O)c1ccc2c(c1)NC(=O)/C2=C1/C(=O)Nc2cc(Br)ccc21 [6B6MCIId, Methyl 6-bromoisoindigo-6′-carboxylate] | −1.05, V | −1.55 | −1.05 V | 8.34e+08 | 8.92 | 0.486 | 2.02 |  |  |  |  |  |
| O=C1C=C(Cl)C(=O)C(Cl)=C1 [BQ-Cl2] |  |  |  |  |  |  |  | 1.86 | −0.7 | −1.59 | −1.66 |  |
| O=C1c2ccccc2C(=O)c2cc(Cl)ccc21 [AQ-Cl] |  |  |  |  |  |  |  | 2.73 | −1.25 | −1.88 | −2 |  |
| O=C1Nc2ccccc2/C1=C1\C(=O)Nc2cc(C(=O)O)ccc21 [6CIId, Isoindigo-6-carboxylic Acid] | −1.09, V | −1.35 | −1.06, V | 750 | 2.87 | 0.129 | 2.01 |  |  |  |  | E1/2 in CO2 (second) [1]: −1.18 V |
| O=C1Nc2cc(F)c(F)cc2/C1=C1\C(=O)Nc2cc(F)c(F)cc21 [5566TFIId, 5,5′,6,6′-Tetrafluoroisoindigo] | −1.10, V | −1.68 | −1.1 V | 2.17e+10 | 10.3 | 0.570 | 2.02 |  |  |  |  |  |
| CCCN1C(=O)/C(=C2/C(=O)N(CCC)c3cc(Br)ccc32)c2ccc(Br)cc21 [NNDPr66DBIId, N,N′-Dipropyl-6,6′-dibromoisoindigo] | −1.07, V | −1.61 | −1.08, V | 74800 | 4.48 | 0.247 | 2.02 |  |  |  |  | E1/2 (IId/IId·−) in N2 [1]: −1.07 V vs. Fc^+/Fc; E1/2 in CO2 (second) [1]: −1.34 V; logK[CO2] ([2]; Table 1): 4.87; kbimolecular ([5]; first CO2 binding): 3.3 M⁻¹ s⁻¹ and 3.31 M⁻¹ s⁻¹; kf (20% CO2) ([5]; forward rate constant, 20% CO2): 0.131 s⁻¹ |
| O=C1C=CC(=O)c2ccccc21 [p-NQ] |  |  |  |  |  |  |  | 14.74 | −1.23 | −1.23 | −2.06 |  |
| O=C1Nc2ccccc2/C1=C1\C(=O)Nc2ccc([N+](=O)[O-])cc21 [5NIId, 5-Nitroisoindigo] | −1.08 V and −1.08, V | −1.57 | −1.08 V | 7.63e+08 | 8.88 | 0.484 | 2.07 |  |  |  |  |  |
| O=C1C=CC(=O)C=C1 [BQ] |  |  |  |  |  |  |  | 18.12 | −0.95 | −0.95 | −1.98 |  |
| O=C1Nc2ccccc2/C1=C1\C(=O)Nc2cc(Br)ccc21 [6BIId, 6-Bromoisoindigo] | −1.21, V | −1.75 | −1.14 V | 6.25e+09 | 9.8 | 0.538 | 2.05 |  |  |  |  |  |
| CCCCC(CC)CN1C(=O)/C(=C2/C(=O)N(CC(CC)CCCC)c3ccccc32)c2ccccc21 (stereo not shown) [NNDEHIId, N,N′-Di-(2-ethylhexyl)-isoindigo] | −1.23, V | −1.80 | −1.16, V | 4.19e+06 | 6.62 | 0.350 | 2.00 |  |  |  |  | E1/2 in CO2 (second) [1]: −1.45 V |
| COC(=O)c1ccc2c(c1)NC(=O)/C2=C1/C(=O)Nc2ccc([N+](=O)[O-])cc21 [5N6MCIId, Methyl-5-nitroisoindigo-6-carboxylate] | −0.93 V and −0.93, V | −1.40 | −0.94, V | 41500 | 4.62 | 0.232 | 2.08 |  |  |  |  | E1/2 in CO2 (second) [1]: −1.15 V |
| O=C1C(Cl)=C(Cl)C(=O)c2ccccc21 [p-NQ-Cl2] |  |  |  |  |  |  |  | 2.73 | −0.9 | −1.63 | −1.75 |  |
| CC(C)(C)C1=CC(=O)C=C(C(C)(C)C)C1=O [TBQ] |  |  |  |  |  |  |  | 18.29 | −1.25 | −1.25 | −2.29 |  |
| O=C1C(Cl)=C(Cl)C(=O)C(Cl)=C1Cl [BQ-Cl4] |  |  |  |  |  |  |  | 1.28 | −0.48 | −1.38 | −1.42 |  |
| COc1ccc2c(c1)/C(=C1\C(=O)Nc3ccc(OC)cc31)C(=O)N2 [55DMIId, 5,5′-Dimethoxylisoindigo] | −1.29 V and −1.29, V | −1.76 | −1.2 V | 1.13e+09 | 9.05 | 0.494 | 1.78 |  |  |  |  | E1/2 (IId/IId·−) in N2 [1]: −1.29 V vs. Fc^+/Fc; logK[CO2] ([2]; Table 1): 9.05 |
| CCCOC(=O)c1ccc2c(c1)C(=O)c1ccccc1C2=O [AQ-COO- C3H7] |  |  |  |  |  |  |  | 2.56 | −1.29 | −1.89 | −2 |  |
| O=C1Nc2ccc(F)cc2/C1=C1\C(=O)Nc2ccc(F)cc21 [55DFIId, 5,5′-Difluoroisoindigo] | −1.14, V | −1.69 | −1.13 V | 9.13e+09 | 9.96 | 0.547 | 1.97 |  |  |  |  |  |
| O=C1Nc2ccccc2/C1=C1\C(=O)Nc2ccc(Br)cc21 [5BIId, 5-Bromoisoindigo] | −1.19, V | −1.67 | −1.11 V | 1.12e+09 | 9.05 | 0.494 | 2.04 |  |  |  |  | E1/2 (IId/IId·−) in N2 [1]: −1.19 V vs. Fc^+/Fc; Experimental 1st half-wave potential in N2 ([1]; Table 5, vs. Fc^+/Fc): −1.19 V; logK[CO2] ([2]; Table 1): 9.05 |
| O=C1c2ccccc2C(=O)c2ccccc21 [AQ, anthraquinone] |  |  |  |  |  |  |  | 13.39 | −1.4 | −1.4 | −2.15 | logKCO2 ([4]; listed as anthraquinone): approximately 13.4 |
| CCCOc1ccc2c(c1)C(=O)c1ccccc1C2=O [AQ-O-C3H7] |  |  |  |  |  |  |  | 11.70 | −1.55 | −1.55 | −2.2 |  |
